Data on six compounds can be found in ChEMBL document CHEMBL3244200, “8-Carboxy-6-sulfamyldibenz[b,f][1,4]oxazepines and -thiazepines as potential high-ceiling diuretics” (1978).

Calls of active or inactive are those of the source. The calls are words filed in the database; no cut-off is given here.

For the first assay, the system named is Rattus norvegicus. In words: High-ceiling diuretic activity in Wistar rat assessed as drug to urea ratio to cause diuresis at 50 mg/kg, po measured for 5 hrs (reference value: 0.44 +/- 0.05 no unit). It is filed as functional, Urine.
Settings: not given
Turning to `NS(=O)(=O)c1cc(C(=O)O)cc2c1Sc1ccccc1CN2`, the Ratio is given as 0.07.

Regarding `NS(=O)(=O)c1cc(C(=O)O)cc2c1Sc1ccccc1C(=O)N2`, the Ratio amounted to 0.56.

Take `CCCCNc1cc(C(=O)O)cc(S(N)(=O)=O)c1Oc1ccccc1` [BUMETANIDE]: the Ratio is 2.6.

Regarding `COC(=O)c1cc2c(c(S(N)(=O)=O)c1)Sc1ccccc1C(=O)N2`, the Ratio is reported as 0.25.

On to `COC(=O)c1cc2c(c(S(N)(=O)=O)c1)Oc1ccccc1C(=O)N2`, for which the Ratio was found to be 0.79.

On to `NS(=O)(=O)c1cc(C(=O)O)cc2c1Oc1ccccc1CN2`, for which the Ratio amounted to 0.47.

The next assay concerns Rattus norvegicus. Nature of the assay: High-ceiling diuretic activity in Wistar rat assessed as drug to urea ratio to increase K+ level in urine at 50 mg/kg, po measured for 5 hrs by flame photometric analysis (reference value: 0.57 +/- 0.08 no unit). It is filed as functional.
Settings: not given
For the compound `NS(=O)(=O)c1cc(C(=O)O)cc2c1Sc1ccccc1CN2`, the Ratio was 0.05.

Consider `NS(=O)(=O)c1cc(C(=O)O)cc2c1Sc1ccccc1C(=O)N2`, for which the Ratio is recorded as 0.62.

Take `CCCCNc1cc(C(=O)O)cc(S(N)(=O)=O)c1Oc1ccccc1` [BUMETANIDE]: the Ratio was 0.97.

For the compound `COC(=O)c1cc2c(c(S(N)(=O)=O)c1)Sc1ccccc1C(=O)N2`, the Ratio is 0.41.

In the case of `COC(=O)c1cc2c(c(S(N)(=O)=O)c1)Oc1ccccc1C(=O)N2`, the Ratio is listed as 0.63.

As to `NS(=O)(=O)c1cc(C(=O)O)cc2c1Oc1ccccc1CN2`, the Ratio stood at 0.9.

Another assay concerns Canis familiaris. Nature of the assay: High-ceiling diuretic activity in Beagle dog at 20 mg/kg, po. It is filed as functional, organism-based. Details: dose 20 mg/kg. To be noted: Canis lupus familiaris, Urine.
With `NS(=O)(=O)c1cc(C(=O)O)cc2c1Sc1ccccc1CN2`, the outcome was inactive.

On to `NS(=O)(=O)c1cc(C(=O)O)cc2c1Sc1ccccc1C(=O)N2`, for which the result was inactive.

A further assay has as its system Rattus norvegicus. Nature of the assay: High-ceiling diuretic activity in Wistar rat assessed as drug to urea ratio to increase Na+ level in urine at 50 mg/kg, po measured for 5 hrs by flame photometric analysis (reference value: 0.47 +/- 0.07 no unit). It is filed as functional.
Settings: not given
As for `NS(=O)(=O)c1cc(C(=O)O)cc2c1Sc1ccccc1CN2`, the Ratio amounted to 0.13.

`NS(=O)(=O)c1cc(C(=O)O)cc2c1Sc1ccccc1C(=O)N2`: the Ratio amounted to 0.71.

For the compound `CCCCNc1cc(C(=O)O)cc(S(N)(=O)=O)c1Oc1ccccc1` [BUMETANIDE], the Ratio worked out at 4.66.

Regarding `COC(=O)c1cc2c(c(S(N)(=O)=O)c1)Sc1ccccc1C(=O)N2`, the Ratio is 0.42.

On to `COC(=O)c1cc2c(c(S(N)(=O)=O)c1)Oc1ccccc1C(=O)N2`, for which the Ratio was 1.24.

Take `NS(=O)(=O)c1cc(C(=O)O)cc2c1Oc1ccccc1CN2`: the Ratio is reported as 1.
